Structures can show the parent of a compound that is named as a salt.

From patent US20250170156A1, “TOLL-LIKE RECEPTOR LIGANDS” (INIMMUNE CORPORATION, priority 2018, published 2025) come the findings set out here.

In assay [1] the test system is primary hPBMCs. In words: Induction of MIP-1β from primary hPBMCs (ELISA).
The next assay relates to hMM6 cells. In words: Induction of MIP-1β cytokine from hMM6 cells (ELISA). To be noted: Homo sapiens, 18 hours. In kind it is cell-based. The protocol: Induction of […] cytokine from hMM6 cells. The compounds were next tested in the established MM6 potency assay measuring MIP-1β cytokine production as an output measure of compound potency. Human monocytic cell line, Mono-Mac-6 (hMM6) was obtained from DSMZ (Brunswick, Germany). […] Treatments started at a 100 µM concentration proceeded with a 16-point, 5-fold dilution series. Supernatants were harvested and analyzed for production of MIP-1β via ELISA (R&D systems, catalog #DY271).
On the technique in general: In an ELISA, binding on a coated surface is turned into a signal by an enzyme label.

Another assay deals with T1, hTLR4 (Homo sapiens, UniProt O00206+Q9Y6Y9).
T1 construct: expressed in transfected cells; host or cells: HEK cells expressing hTLR4 and an NF-κB driven SEAP reporter
In words: HEK hTLR4 NF-κB driven SEAP reporter assay (hTLR4 activation). The format is cell-based. To be noted: 18 hours. The protocol:
hTLR4 activation. HEK hTLR4-expressing cells were treated with 100 μM concentration of test compound followed by a 5-fold dilution series. HEK hTLR4-expressing cells also contained an NF-κB driven SEAP reporter and were stimulated with the indicated concentration (FIG. 1A-1C) of the test compound for 18 hours followed by assessment of the cellular supernatant for SEAP by a Quantikine SEAP assay (InvivoGen). The SEAP assay was used to look at secretion of the NF-κB driven alkaline-phosphatase reporter gene in response to TLR4 activation by the compounds and results are interpreted both in terms of potency of the compounds to induce SEAP activation (i.e. potency where a lower EC50 indicates higher potency) and efficacy for receptor activation (i.e. maximal SEAP induction).

A further assay concerns mRAW264.7 cells. In words: Induction of MIP-1β cytokine from mRAW264.7 cells (ELISA). In kind it is cell-based. The note with it: Mus musculus, 18 hours, read-out: mRaw MIP-1β EC50. The procedure: Induction of MIP-1β cytokine from mRAW264.7 cells. […] Treatments started at 20 μM concentration with a 5-fold serial dilution until 3.2768E-09 μM. Supernatants were harvested and analyzed for production of MIP-1β via ELISA (R& D Systems-cat #DY451).

Assay [2] concerns primary hPBMCs. In words: Induction of RANTES from primary hPBMCs (ELISA).
Assay [3] deals with influenza virus antigen A/Victoria/210/2009-H3N2. In words: Vaccine adjuvant study, murine influenza virus vaccination model. To be noted: intramuscular, 0.1, 0.01 or 0.001 μg with 0.2 μg antigen, 14 days after single immunization, 2% glycine. The format is in vivo, BALB/c mice. The protocol: Vaccine adjuvant study. Compounds 2, 4, 5 and 7 were evaluated as vaccine adjuvant in a murine influenza virus vaccination model. 7-9 week old BALB/c mice (10 mice per group) were injected intramuscularly in a hind limb with the influenza virus antigen A/Victoria/210/2009-H3N2 (0.2 μg/mouse) with or without 0.1, 0.01 or 0.001 μg of compound 2, 4, 5 or 7 (formulated in 2% glycine). Fourteen days after a single immunization, animals were bled via the submandibular vein and serum was collected to assay for A/Victoria specific antibodies by ELISA assay (FIG. 7).

Setting [4] is: Homo sapiens, read-out: hPBMCs EC50 MIP-1β, Table 3a, Average of Donors 10, 5, 2.
Where [5] appears, read: Homo sapiens, read-out: hPBMCs EC50 MIP-1β, Table 3a, Donor 2.
[6] abbreviates: Homo sapiens, read-out: hPBMCs EC50 MIP-1β, Table 3a, Donor 5.
The mark [7] stands for this setting: Homo sapiens, read-out: hPBMCs EC50 MIP-1β, Table 3a, Donor 10.
Setting [8] is: Homo sapiens, read-out: hPBMCs EC50 RANTES, Table 3a, Average of Donors 10, 5, 2.
Where [9] appears, read: Homo sapiens, read-out: hPBMCs EC50 RANTES, Table 3a, Donor 2.
Where [10] appears, read: Homo sapiens, read-out: hPBMCs EC50 RANTES, Table 3a, Donor 5.
[11] abbreviates: Homo sapiens, read-out: hPBMCs EC50 RANTES, Table 3a, Donor 10.
The mark [12] stands for this setting: Homo sapiens, read-out: hPBMCs EC50 MIP-1β, Table 4b, Average of Donors 22, 5.
Where [13] appears, read: Homo sapiens, read-out: hPBMCs EC50 MIP-1β, Table 4b, Donor 5.
The mark [14] stands for this setting: Homo sapiens, read-out: hPBMCs EC50 MIP-1β, Table 4b, Donor 22.
The mark [15] stands for this setting: Homo sapiens, read-out: hPBMCs EC50 RANTES, Table 4b, Average of Donors 22, 5.
The mark [16] stands for this setting: Homo sapiens, read-out: hPBMCs EC50 RANTES, Table 4b, Donor 5.
Where [17] appears, read: Homo sapiens, read-out: hPBMCs EC50 RANTES, Table 4b, Donor 22.
The mark [18] stands for this setting: Homo sapiens, 96 h, read-out: hPBMCs EC50 MIP-1β, Table 4d, one donor.
Where [19] appears, read: Homo sapiens, read-out: hPBMCs EC50 RANTES, Table 4c, one donor.

T1 sequence (O00206 24-839): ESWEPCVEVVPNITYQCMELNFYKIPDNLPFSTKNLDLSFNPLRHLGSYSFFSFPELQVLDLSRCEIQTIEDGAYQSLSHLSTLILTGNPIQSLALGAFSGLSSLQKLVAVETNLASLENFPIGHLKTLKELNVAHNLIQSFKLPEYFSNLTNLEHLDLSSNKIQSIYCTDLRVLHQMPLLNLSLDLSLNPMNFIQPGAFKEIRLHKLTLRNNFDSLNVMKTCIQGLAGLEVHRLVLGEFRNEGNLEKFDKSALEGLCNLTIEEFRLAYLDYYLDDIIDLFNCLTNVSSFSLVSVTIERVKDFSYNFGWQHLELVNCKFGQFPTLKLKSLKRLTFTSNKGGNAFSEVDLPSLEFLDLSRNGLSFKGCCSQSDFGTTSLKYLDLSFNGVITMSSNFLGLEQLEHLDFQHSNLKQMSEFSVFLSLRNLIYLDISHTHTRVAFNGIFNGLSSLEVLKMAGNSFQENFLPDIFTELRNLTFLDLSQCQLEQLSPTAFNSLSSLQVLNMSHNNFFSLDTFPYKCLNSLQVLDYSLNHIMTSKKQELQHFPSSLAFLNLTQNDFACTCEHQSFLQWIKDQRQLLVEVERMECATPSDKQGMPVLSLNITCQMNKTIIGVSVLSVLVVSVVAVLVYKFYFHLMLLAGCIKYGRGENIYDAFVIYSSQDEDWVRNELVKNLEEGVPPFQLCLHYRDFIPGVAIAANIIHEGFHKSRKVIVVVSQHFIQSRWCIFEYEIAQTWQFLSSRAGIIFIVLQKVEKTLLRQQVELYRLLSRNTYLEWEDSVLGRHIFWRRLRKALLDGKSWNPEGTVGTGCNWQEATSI
T1 sequence (Q9Y6Y9 17-160 limits assumed): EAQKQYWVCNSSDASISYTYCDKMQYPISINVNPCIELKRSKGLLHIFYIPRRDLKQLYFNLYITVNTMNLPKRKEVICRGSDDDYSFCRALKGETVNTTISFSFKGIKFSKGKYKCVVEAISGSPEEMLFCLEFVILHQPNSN

For the molecule `CCCCCCCCCCC[C@H](CC(=O)N[C@H]1[C@H](OC[C@H](NC(=O)C[C@@H](CCCCCCCCCCC)OC(=O)CCCCCCCCC)C(=O)OC)O[C@H](CO)[C@@H](OP(=O)(O)O)[C@H]1NC(=O)C[C@@H](CCCCCCCCCCC)OC(=O)CCCCCCCCC)OC(=O)CCCCCCCCC` [Compound 3, N—[(R)-3-Decanoyloxytetradecanoyl]-O-[2,3-di-[(R)-3-decanoyloxytetradecanoylamino]-2,3-dideoxy-4-O-phosphono-β-D-allopyranosyl]-L-serine methyl ester], the EC50 with primary hPBMCs [1] (setting [4]) amounted to 0.0478 nM; with primary hPBMCs [1] (setting [5]) it was 0.0314 nM; with primary hPBMCs [1] (setting [6]), 0.0727 nM; with primary hPBMCs [1] (setting [7]), 0.0394 nM; in the assay with hMM6 cells it was 0.462 nM; at hTLR4 (Table 1a) it was 3.95 nM. Also, the EC50 is 0.0112 nM in the assay on mRAW264.7 cells; 0.0719 nM in the assay with primary hPBMCs [2] (setting [8]); 0.0158 nM with primary hPBMCs [2] (setting [9]); 0.158 nM with primary hPBMCs [2] (setting [10]); 0.0417 nM with primary hPBMCs [2] (setting [11]).
Regarding `CCCCCCCCCCC[C@H](CC(=O)NC1[C@H](OC[C@H](NC(=O)C[C@@H](CCCCCCCCCCC)OCCCCCCCCCC)C(=O)O)OC(CO)[C@@H](OS(=O)(=O)O)[C@@H]1NC(=O)C[C@@H](CCCCCCCCCCC)OCCCCCCCCCC)OCCCCCCCCCC` (stereo partly drawn) [Compound 5, N—[(R)-3-Decyloxytetradecanoyl]-O-[2,3-di-[(R)-3-decyloxytetradecanoylamino]-2,3-dideoxy-4-O-sulfoxy-β-D-allopyranosyl]-L-serine], the EC50 is 0.027 nM in the assay with primary hPBMCs [1] (setting [12]); 0.0151 nM in the assay on primary hPBMCs [1] (setting [13]); 0.039 nM in the assay on primary hPBMCs [1] (setting [14]); 2.9 nM on hTLR4 (Table 1b); 0.0238 nM in the assay with primary hPBMCs [2] (setting [15]); 0.0156 nM in the assay on primary hPBMCs [2] (setting [16]). Further, in the assay with primary hPBMCs [2] (setting [17]), the EC50 was 0.0319 nM. Also, the “adjuvant effect on flu-specific IgG2a antibody titers compared to antigen alone” value (from here on “adjuvant effect … compared to antigen alone”) in assay [3] is reported as “dose dependent adjuvant effect”.
For the molecule `CCCCCCCCCCC[C@H](CC(=O)NCCO[C@@H]1OC(CO)[C@@H](OCP(=O)(O)O)[C@H](NC(=O)C[C@@H](CCCCCCCCCCC)OC(=O)CCCCCCCCC)C1NC(=O)C[C@@H](CCCCCCCCCCC)OC(=O)CCCCCCCCC)OC(=O)CCCCCCCCC` (some centres unmarked) [Compound 6], the 50% effective concentration (EC50) in the assay with primary hPBMCs [1] (setting [12]) was found to be 0.0791 nM; with primary hPBMCs [1] (setting [13]), 0.036 nM; with primary hPBMCs [1] (setting [14]), 0.122 nM; on hTLR4 (Table 1b), 10.2 nM; in the assay with primary hPBMCs [2] (setting [15]), 0.174 nM; in the assay on primary hPBMCs [2] (setting [16]), 0.238 nM. The EC50 with primary hPBMCs [2] (setting [17]) was determined as 0.109 nM.
With “N—[(R)-3-Decyloxytetradecanoyl]-O-[2,3-di-[(R)-3-decyloxytetradecanoylamino]-2,3-dideoxy-4-O-methylphosphono-β-D-allopyranosyl]-L-serine triethylammonium salt [Compound 7]”, the EC50 with primary hPBMCs [1] (read-out: hPBMCs EC50 MIP-1β, Table 4b, Average of Donors 22, 5) was found to be 0.0083 nM; in the assay on primary hPBMCs [1] (read-out: hPBMCs EC50 MIP-1β, Table 4b, Donor 5) it was 0.0033 nM; with primary hPBMCs [1] (read-out: hPBMCs EC50 MIP-1β, Table 4b, Donor 22), 0.0133 nM; at hTLR4 (Table 1b), 0.78 nM; with primary hPBMCs [2] (read-out: hPBMCs EC50 RANTES, Table 4b, Average of Donors 22, 5), 0.006 nM; in the assay with primary hPBMCs [2] (read-out: hPBMCs EC50 RANTES, Table 4b, Donor 5), 0.0041 nM. For the same molecule, the concentration giving a half-maximal response (EC50) in the assay on primary hPBMCs [2] (read-out: hPBMCs EC50 RANTES, Table 4b, Donor 22) was found to be 0.008 nM. The “adjuvant effect … compared to antigen alone” value in assay [3] was “dose dependent adjuvant effect”.
For `CCCCCCCCCCC[C@H](CC(=O)NCCO[C@@H]1OC(CO)[C@@H](OP(=O)(O)O)C(NC(=O)C[C@@H](CCCCCCCCCCC)OC(=O)CCCCCCCc2ccccc2)C1NC(=O)C[C@@H](CCCCCCCCCCC)OC(=O)CCCCCCCCC)OC(=O)CCCCCCCCC` (stereo partly drawn) [Compound 9, 2-[(R)-3-decanoyloxytetradecanoylamino]ethyl, 2-[(R)-3-decanoyloxytetradecanoylamino]-3-[(R)-3-(8-phenyl)octanoyloxytetradecanoylamino]-2,3-dideoxy-4-O-phosphono-β-D-allopyranoside triethylammonium salt], the concentration giving a half-maximal response (EC50) with primary hPBMCs [1] (setting [18]) was found to be 0.182 nM; on hTLR4 (Table 1b), 15.7 nM; in the assay on primary hPBMCs [2] (setting [19]), 0.143 nM.
Consider `CCCCCCCCCCC[C@H](CC(=O)NCCO[C@@H]1OC(CO)[C@@H](OP(=O)(O)O)C(NC(=O)C[C@@H](CCCCCCCCCCC)OC(=O)CCCCCCCc2ccccc2)C1NC(=O)C[C@@H](CCCCCCCCCCC)OC(=O)CCCCCCCc1ccccc1)OC(=O)CCCCCCCc1ccccc1` (stereo partly drawn) [Compound 8, 2-[(R)-3-(8-phenyl)octanoyloxytetradecanoylamino]ethyl 2,3-di-[(R)-3-(8-phenyl)octanoyloxytetradecanoylamino]-2,3-dideoxy-4-O-phosphono-β-D-allopyranoside triethylammonium Salt], for which the EC50 in the assay with primary hPBMCs [1] (setting [18]) worked out at 0.0418 nM; on hTLR4 (Table 1b), 4.99 nM; with primary hPBMCs [2] (setting [19]), 0.0391 nM.
With `CCCCCCCCCCC[C@H](CC(=O)NC1C(NC(=O)C[C@@H](CCCCCCCCCCC)OCCCCCCCCCC)[C@H](OP(=O)(O)O)C(CO)O[C@H]1OC[C@H](NC(=O)C[C@@H](CCCCCCCCCCC)OCCCCCCCCCC)C(=O)O)OCCCCCCCCCC` (some centres unmarked) [Compound 4], the EC50 in the assay with primary hPBMCs [1] (setting [4]) worked out at 0.0049 nM; with primary hPBMCs [1] (setting [5]), 0.0059 nM; in the assay with primary hPBMCs [1] (setting [6]) it was 0.0027 nM; in the assay with primary hPBMCs [1] (setting [7]), 0.0062 nM; with primary hPBMCs [1] (setting [12]), 0.0137 nM; in the assay on primary hPBMCs [1] (setting [13]) it was 0.0141 nM. Moreover, the concentration for a half-maximal effect (EC50) with primary hPBMCs [1] (setting [14]) stood at 0.0133 nM; in the assay on hMM6 cells, 0.124 nM; at hTLR4 (Table 1a) it was 1.32 nM; on hTLR4 (Table 1b), 1.39 nM; in the assay on mRAW264.7 cells it was 0.0014 nM; in the assay with primary hPBMCs [2] (setting [8]), 0.0083 nM. Further, the EC50 was determined as 0.0083 nM with primary hPBMCs [2] (setting [9]); 0.0081 nM in the assay on primary hPBMCs [2] (setting [10]); 0.0084 nM in the assay with primary hPBMCs [2] (setting [11]); 0.0185 nM in the assay with primary hPBMCs [2] (setting [15]); 0.0149 nM in the assay with primary hPBMCs [2] (setting [16]); 0.0221 nM in the assay with primary hPBMCs [2] (setting [17]). The “adjuvant effect … compared to antigen alone” value in assay [3] is on record as “dose dependent adjuvant effect”.

A word on the EC50: it is the concentration needed to bring the measured effect to its halfway point.
